Measured values published in ChEMBL document CHEMBL4480359, “Phosphotyrosine prodrugs: design, synthesis and anti-STAT3 activity of ISS-610 aryloxy triester phosphoramidate prodrugs” (Medchemcomm, 2019).
Activity calls are given as the source filed them. The rule behind the calls is not given here.

Key:
[1] = target: Signal transducer and activator of transcription 3 (Homo sapiens) (UniProt P40763); experiment: Inhibition of STAT3 dimerization in human MDA-MB-231 cells assessed as down-regulation of Bcl-xl protein expression at 0.1 to 100 uM after 24 hrs by Western blot analysis; assay type: cell-based
[2] = target: Signal transducer and activator of transcription 3 (Homo sapiens) (UniProt P40763); experiment: Inhibition of STAT3 dimerization in human MDA-MB-231 cells assessed as down-regulation of survivin protein expression at 0.1 to 100 uM after 24 hrs by Western blot analysis; assay type: cell-based
[3] = target: Signal transducer and activator of transcription 3 (Homo sapiens) (UniProt P40763); experiment: Inhibition of STAT3 dimerization in human MDA-MB-231 cells assessed as down-regulation of survivin protein expression at 30 uM after 24 hrs by Western blot analysis; assay type: cell-based
[4] = Stability in human serum assessed as phosphorus peak formation measured over 12 hrs by [31P]-NMR analysis; assay type: ADME, cell-free
[5] = Stability in human serum incubated for 12 hrs by mass spectrometric analysis; assay type: ADME, cell-free

Signal transducer and activator of transcription 3 (Homo sapiens), sequence (P40763 whole entry): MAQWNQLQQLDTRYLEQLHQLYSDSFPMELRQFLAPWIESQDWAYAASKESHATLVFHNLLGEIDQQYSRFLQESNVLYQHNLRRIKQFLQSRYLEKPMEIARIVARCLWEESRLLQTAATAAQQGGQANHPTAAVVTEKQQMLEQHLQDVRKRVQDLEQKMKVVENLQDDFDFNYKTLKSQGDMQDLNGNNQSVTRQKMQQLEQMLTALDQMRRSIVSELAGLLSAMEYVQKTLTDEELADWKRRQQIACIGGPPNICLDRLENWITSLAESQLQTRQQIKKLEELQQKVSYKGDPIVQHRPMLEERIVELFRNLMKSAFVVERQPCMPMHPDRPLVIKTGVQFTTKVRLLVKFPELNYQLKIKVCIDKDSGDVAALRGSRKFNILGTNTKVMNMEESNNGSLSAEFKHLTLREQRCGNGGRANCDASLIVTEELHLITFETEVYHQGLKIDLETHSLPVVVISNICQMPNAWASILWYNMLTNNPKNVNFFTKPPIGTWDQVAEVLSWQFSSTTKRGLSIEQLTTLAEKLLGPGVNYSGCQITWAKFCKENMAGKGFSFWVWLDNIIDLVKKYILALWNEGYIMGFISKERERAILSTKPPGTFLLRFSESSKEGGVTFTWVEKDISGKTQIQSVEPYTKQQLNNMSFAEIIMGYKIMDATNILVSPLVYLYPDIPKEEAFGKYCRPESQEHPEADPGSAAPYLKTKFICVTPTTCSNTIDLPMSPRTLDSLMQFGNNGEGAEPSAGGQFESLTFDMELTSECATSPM

Row | SMILES | inhibition [1] | inhibition [2] | inhibition [3] | Stability [4] | Stability [5]
1 | COC(=O)[C@H](CC(C)C)NC(=O)[C@H](Cc1ccc(OP(=O)(N[C@@H](C)C(=O)OCc2ccccc2)Oc2cccc3ccccc23)cc1)NC(=O)c1ccc(C#N)cc1 (some centres undefined) | Active | Active |  |  | 
2 | CC(C)C[C@H](NC(=O)[C@H](Cc1ccc(OP(=O)(O)O)cc1)NC(=O)c1ccc(C#N)cc1)C(=O)O | inactive | inactive |  |  | 
3 | COC(=O)[C@H](CC(C)C)NC(=O)[C@H](Cc1ccc(OP(=O)(O)O)cc1)NC(=O)c1ccc(C#N)cc1 | inactive | inactive |  |  | 
4 | COC(=O)[C@H](CC(C)C)NC(=O)[C@H](Cc1ccc(OP(=O)(N[C@@H](C)C(=O)OC(C)C)Oc2cccc3ccccc23)cc1)NC(=O)c1ccc(C#N)cc1 (some centres undefined) | Active | Active | Active | Stable | Stable
5 | COC(=O)[C@H](C)NP(=O)(Oc1ccc(C[C@H](NC(=O)c2ccc(C#N)cc2)C(=O)N[C@@H](CC(C)C)C(=O)OC)cc1)Oc1cccc2ccccc12 (some centres undefined) | Active | Active | Active |  | 
